From patent US6936585B2, “Corticotropin releasing factor 2 receptor agonists” (priority 2002, dated 2005)
Ends that are not written are not given here. Peptide text beside a SMILES is read from it.

Experiments:
[1] = target: T1, CRF2R (Homo sapiens, UniProt Q13324); experiment: CRF2R agonist activation (EC50 / Emax), called comparative CRF binding; type: cell-based; conditions: read-out: CRF2R Emax
T1 sequence (Q13324 1-411): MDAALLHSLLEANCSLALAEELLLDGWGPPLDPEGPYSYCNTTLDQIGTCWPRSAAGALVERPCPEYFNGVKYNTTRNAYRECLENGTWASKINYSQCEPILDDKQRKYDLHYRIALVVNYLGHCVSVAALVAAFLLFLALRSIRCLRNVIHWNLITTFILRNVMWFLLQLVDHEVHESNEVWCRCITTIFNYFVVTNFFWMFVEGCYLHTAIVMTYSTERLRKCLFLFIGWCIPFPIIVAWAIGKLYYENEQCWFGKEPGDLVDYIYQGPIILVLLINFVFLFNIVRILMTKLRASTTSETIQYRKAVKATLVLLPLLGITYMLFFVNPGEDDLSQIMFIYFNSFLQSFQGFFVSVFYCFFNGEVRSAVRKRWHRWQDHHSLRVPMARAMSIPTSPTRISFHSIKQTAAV
Description: (§1) The pharmacological activity and selectivity of the peptides of present invention can be determined using published test procedures. See, e.g, U.S. patent application Ser. No. 09/799,978 (now issued U.S. Pat. No. 6,670,140). Because CRF2R and CRF1R are homologous proteins, it is expected that a certain proportion of agonists for CRF2R will also function as agonists of CRF1R. As discussed above, activation of CRF1R induces activation of the HPA axis since increased corticosteroid production leads to skeletal muscle atrophy. In most cases in which an increase in muscle mass or function is desired, it is not desirable to activate the HPA axis.
(§2) Cell-based assays include the steps of contacting cells which express CRF1R or CRF2R with a peptide of the present invention or control and measuring activation of the CRFR by measuring the expression or activity of components of the CRFR signal transduction pathways.
(§3) For example, after contact with a peptide of the present invention, lysates of the cells can be prepared and assayed for induction of cAMP. cAMP is induced in response to Gαs activation. Because Gαs is activated by receptors other than CRFR and because a test peptide may be exerting its effect through CRFRs or by another mechanism, two control comparisons are relevant for determining whether the peptide increases levels of cAMP via activation of a CRFR. One control compares the cAMP level of cells contacted with the peptide and the cAMP level of cells contacted with a control compound (i.e., the vehicle in which the peptide is dissolved).
(§4) In one example, cAMP induction is measured with the use of DNA constructs containing the cAMP responsive element linked to any of a variety of reporter genes can be introduced into cells expressing CRFRs. Such reporter genes include, but are not limited to, chloramphenicol acetyltransferase (CAT), luciferase, glucuronide synthetase, growth hormone, fluorescent proteins (e.g., Green Fluorescent Protein), or alkaline phosphatase. Following exposure of the cells to the peptide, the level of reporter gene expression can be quantitated to determine the peptide's ability to increase cAMP levels and thus determine the peptide's ability to activate the CRFR.
(§5) In addition to using cells expressing full length CRFRs, cells can be engineered which express CRFRs containing the ligand binding domain of the receptor coupled to, or physically modified to contain, reporter elements or to interact with signaling proteins. For example, a wild type CRFR or CRFR fragment can be fused to a G-protein resulting in activation of the fused G-protein upon agonist binding to the CRFR portion of the fusion protein. […] In addition, alternative pathways for induction of the CRE reporter could be eliminated to reduce basal levels.

[2] = target: T2, CRF1R (Homo sapiens, UniProt P34998); experiment: CRF1R agonist activation (EC50 / Emax), called comparative CRF binding; type: cell-based; conditions: read-out: CRF1R Emax
T2 sequence (P34998 24-415): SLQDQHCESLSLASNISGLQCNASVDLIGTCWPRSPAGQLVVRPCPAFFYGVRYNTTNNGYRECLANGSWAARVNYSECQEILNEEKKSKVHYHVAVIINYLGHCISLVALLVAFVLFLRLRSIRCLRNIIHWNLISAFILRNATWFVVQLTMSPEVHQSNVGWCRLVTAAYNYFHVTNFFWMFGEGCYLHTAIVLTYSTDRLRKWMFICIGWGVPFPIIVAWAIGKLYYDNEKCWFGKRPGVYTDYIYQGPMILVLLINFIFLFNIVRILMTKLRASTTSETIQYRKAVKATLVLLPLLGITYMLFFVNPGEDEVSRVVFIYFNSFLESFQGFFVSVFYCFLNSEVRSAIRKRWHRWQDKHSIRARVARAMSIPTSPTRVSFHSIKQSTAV
Description: as §1, §2, §3, §4, §5

Compound | Emax [1] [%] | Emax [2] [%]
CC[C@H](C)[C@H](NC(=O)[C@H](C)NC(=O)[C@H](CC(N)=O)NC(=O)[C@H](CCC(N)=O)NC(=O)[C@H](CCC(=O)O)NC(=O)[C@H](C)NC(=O)[C@H](CCCNC(=N)N)NC(=O)[C@H](CCC(=O)O)NC(=O)[C@H](CCCNC(=N)N)NC(=O)[C@H](CCC(N)=O)NC(=O)[C@H](CO)NC(=O)[C@H](CCC(N)=O)NC(=O)[C@@H](NC(=O)[C@H](CCCNC(=N)N)NC(=O)[C@H](C)NC(=O)[C@H](CC(C)C)NC(=O)[C@H](CCC(=O)O)NC(=O)[C@H](CC(C)C)NC(=O)[C@H](CC(C)C)NC(=O)[C@@H](NC(=O)[C@H](CCCNC(=N)N)NC(=O)[C@H](CC(C)C)NC(=O)[C@H](CC(C)C)NC(=O)[C@H](Cc1ccc(O)cc1)NC(=O)[C@H](CCC(N)=O)NC(=O)[C@@H]1CCCN1C(=O)[C@H](CC(C)C)NC(=O)[C@H](CC(=O)O)NC(=O)[C@@H](NC(=O)[C@H](CO)NC(=O)[C@H](CC(C)C)NC(=O)[C@H](CO)NC(=O)[C@@H]1CCCN1C(=O)[C@H](CC(N)=O)NC(=O)[C@@H](N)CC(=O)O)[C@@H](C)CC)[C@@H](C)O)[C@@H](C)O)C(=O)N[C@H](C(=O)N[C@@H](Cc1ccccc1)C(=O)N[C@@H](C)C(=O)N[C@@H](CO)C(=O)N[C@H](C(N)=O)C(C)C)[C@@H](C)CC [compound 339] (H-DNPSLSIDLPQYLLRTLLELARTQSQRERAEQNAIIFASV-NH2) | 47.9 | 13.2
SQEPPISLDLPIQLLREVLEMTKADQLAQQAHSNRKLLDIA-NH2 [compound 100] | 9.85 | 6.25
SQEPPISLDLPLELLREVLEMTKADQLAQQAHSNRKLLDIA-NH2 [compound 89] | 12.7 | 
CC[C@H](C)[C@H](N)C(=O)N[C@H](C(=O)N[C@@H](CC(C)C)C(=O)N[C@@H](CO)C(=O)N[C@@H](CC(C)C)C(=O)N[C@@H](CC(=O)O)C(=O)N[C@H](C(=O)N1CCC[C@H]1C(=O)N[C@H](C(=O)NCC(=O)N[C@@H](CC(C)C)C(=O)N[C@@H](CC(C)C)C(=O)N[C@@H](CCC(N)=O)C(=O)N[C@H](C(=O)N[C@@H](CC(C)C)C(=O)N[C@@H](CC(C)C)C(=O)N[C@@H](CCC(=O)O)C(=O)N[C@@H](CCC(N)=O)C(=O)N[C@@H](CCC(=O)O)C(=O)N[C@@H](CCCCN)C(=O)N[C@@H](C)C(=O)N[C@@H](CCCNC(=N)N)C(=O)N[C@@H](C)C(=O)N[C@@H](C)C(=O)N[C@@H](CCCNC(=N)N)C(=O)N[C@@H](CCC(=O)O)C(=O)N[C@@H](CCC(N)=O)C(=O)N[C@@H](C)C(=O)N[C@H](C(=O)N[C@H](C(=O)N[C@@H](CC(N)=O)C(=O)N[C@@H](C)C(=O)N[C@@H](CCCNC(=N)N)C(=O)N[C@H](C(=O)N[C@@H](CC(C)C)C(=O)N[C@@H](C)C(=O)N[C@@H](CCCNC(=N)N)C(=O)N[C@H](C(N)=O)C(C)C)[C@@H](C)CC)[C@@H](C)O)[C@@H](C)O)[C@@H](C)CC)[C@@H](C)CC)C(C)C)C(C)C [compound 107] (H-IVLSLDVPIGLLQILLEQEKARAAREQATTNARILARV-NH2; N-terminus assumed) | 87.9 | 
